We go through two compounds from patent publication US20200138921A1, “METHODS OF PREVENTING AND TREATING DISEASES CHARACTERIZED BY SYNAPTIC DYSFUNCTION AND NEURODEGENERATION INCLUDING ALZHEIMER'S DISEASE” (The Trustees of Columbia University in the City of New York, priority 2017, published 2020).

What all share (format): cell-based, rat
The test system of series [1] is Ube3A. The series can be described thus: Ube3A protein degradation in B35 cells (cycloheximide chase). The settings on record: pre-treatment with STI. How it is done:
FIG. 5A is a graph showing the quantification of Western blots of the levels of Ube3A and GAPDH (as house-keeping protein) of B35 cells treated with cycloheximide (CHX) or CHX and oAβ for 4, 8 and 16 hours. […] Graphs represent mean values and standard deviation. Significance determined by one-way ANOVA followed by Tukey Post Hoc multiple comparisons.

Series [2] relates to Ube3A. The series can be described thus: Immunoprecipitation of HA-Ube3A and phospho-tyrosine immunoblot in B35 cells. The note with it: B35 cells pre-treated with STI-571 for 1 hour prior to oAβ. How it is done:
(§1) Hippocampal neuron cultures from both male and female rat embryos (E17-18) were prepared following a slightly modified version of the method of Brewer et al. 1996. Hippocampal neurons were kept in culture at 37° C. with 5% CO2 in Neurobasal medium (ThermoFisher) with B27 (ThermoFisher) supplement and Glutamax (ThermoFisher) and plated at a density of 2.5×10^5 cell/ml on dishes coated with poly-D-lysine (ThermoFisher). For the experiments, neurons were used after 14-21 days in vitro (DIV). Rat neuroblastoma B35 cells were cultured and maintained in DMEM (ThermoFisher) supplemented with 10% fetal bovine serum (FBS; Invitrogen) and Glutamax (ThermoFisher).
Cells were collected and homogenized with IP lysis buffer (ThermoFisher) supplemented with Halt protease and phosphatase inhibitor (ThermoFisher). Cell extracts were incubated overnight at 4° C. with 1.0 μg HA antibody (Cell Signaling) or mouse IgG (Cell Signaling) as a negative control Immunocomplexes were incubated with magnetic beads covalently coated with protein G (Invitrogen) on a rotator for 2 hours, at 4° C. The beads were then pelleted with a magnet and washed 3 times with 1× cell lysis buffer (Cell Signaling) supplemented with complete mini protease inhibitor mixture (Roche). The immunocomplexes were resuspended in cell lysis buffer, LDS-sample buffer (Invitrogen), […] dithiothreitol (DTT), and analyzed by Western blotting. […]
(A western blot detects proteins with antibodies after separation by electrophoresis.)

Series [3] concerns Ephexin-5. The series can be described thus: Western blot of Ephexin-5 in cultured primary hippocampal neurons. The settings on record: hippocampal neurons, Penetratin-1-linked siRNA for 24 hours. How it is done:
as §1
Whole frozen mouse hippocampi, human brain specimens, and cultured cells were homogenized in RIPA buffer (ThermoFisher) supplemented with protease and phosphatase inhibitor cocktail (ThermoFisher), using a Teflon dounce homogenizer and centrifuged at 14,000 rpm for 10 minutes at 4° C. Supernatants were collected, normalized by BCA assay (ThermoFisher), and prepared for loading using sample buffer (SB) 4× (ThermoFisher) and dithiothreitol (DTT) 10× (ThermoFisher).
Cultured primary hippocampal neurons (14 DIV) were treated with 300 nM of a topoisomerase type I inhibitor, topotecan (TOP) or a vehicle control as described in Huang et al. 2012. Some cells were treated for 24 hours and some for 72 hours. All cells were harvested and whole cell lysates prepared for Western blot analysis of Ube3A and Ephixin-5.

The test system of series [4] is primary hippocampal neurons. The series can be described thus: Dendritic spine density in cultured hippocampal neurons (DiOlistic labeling). The note with it: siRNA pre-treatment, oAβ 24 hours. How it is done: The protocol for diolistic labeling of neurons was adapted from Gan et al. 2000 and Gan et al. 2009. Briefly, 100 mg of tungsten particles (1.1 μm diameter; Bio-Rad) were thoroughly precipitated with 5.0 mg of lipophilic dye (DiI; ThermoFisher) and dissolved in 100 μl of methylene chloride. Dye-coated particles were shot 2-3 times into the cells using the Helios gene gun system (Bio-Rad) and left in 0.1 M PBS overnight to allow dye diffusion along neuronal processes. Cells were post-fixed with 4% paraformaldehyde (Pierce) for 1 hour to preserve staining, then mounted onto glass slides using Gel Mount (Biomeda) and stored at 4° C. in the dark.
Labeled neurons were imaged using the Laser Scanning Microscope (LSM) 510 Meta confocal microscope (Zeiss), equipped with 40×1.3 NA and 100×1.4 NA oil-immersion objectives. The NIH Image software program ImageJ was used the quantify diolistic-labeled cultured neurons. An average of 12 compressed images (20 μm thick) consisting of pyramidal neurons were quantified for each treatment. Spines were counted with NeuronStudio software in a blinded manner and spine density was represented in number of spine per μm dendritic length. Statistical analysis was performed using the statistics package GraphPad Prism.
To further test whether increasing Ube3A could rescue the effects of oAβ, cultured primary hippocampal neurons (14 DIV) were pretreated with 300 nM of TOP or control PBS. The neurons were then treated with oAβ for 24 hours, and whole cell lysates prepared for Western blot analysis, or fixed for microscopy.

For series [5], the system named is RhoA-GTP. The series can be described thus: Rho-GTPase activity pull-down assay in hippocampal neurons. The note with it: siRNA 24 hours prior to oAβ for 8 hours. How it is done: Rho-GTPase pull-down assays were performed following the manufacturer's protocol (Cytoskeleton, Inc.). Briefly, cells were washed once with ice-cold PBS and lysed with RIPA/M-PER buffer (1:1; ThermoFisher). Lysates were incubated on ice for 5 minutes, and centrifuged (12,000 g) for 5 minutes. 30 μl was used for input and the remaining lysates were incubated with Rhotekin-RBD (RhoA) or PAK-RBD (Rac1) protein beads (25 μl) by rotating for 1 hour at 4° C. Beads were washed with ice-cold PBS (500 μl, 3×) and collected, and bound proteins were eluted with 1× sample buffer (30 μl). Input and eluted samples were then analyzed by gel electrophoresis and Western blotting using either a RhoA or Rac1-specific antibody.
To test whether increasing Ube3A could rescue the effects of oAβ, cultured primary hippocampal neurons (14 DIV) were pretreated with 300 nM of TOP or control PBS. At day 3 the cells were treated with oligomeric Aβ for 6 hours and whole cell lysates prepared for Western blot analysis of Ube3A protein levels and levels of active GTPase levels including RhoA-GTP, Rac1-GTP and Cdc42-GTP.

As to `Cc1ccc(NC(=O)c2ccc(CN3CCN(C)CC3)cc2)cc1Nc1nccc(-c2cccnc2)n1` [STI-571], the “oAβ-induced decrease in Ube3A protein” value in series [1] is on record as “completely blocked”. Besides, the “Ube3A phosphorylation by oAβ” value in series [2] is “complete abolishment”.
As to “Penetratin-1-linked siRNA: Ephexin-5 siRNA (SEQ ID NO: 1 and 2) cross-linked via a Cys-Cys bond to the delivery peptide Penetratin-1 (chain 1 GUCCUUUCUCCGUGUAUGUUU; chain 2 ACAUACACGGAGAAAGGACUU; Penetratin-1 peptide attached via Cys-Cys disulfide, further chemistry not given here)”, the “levels of Ephexin-5” value in series [3] is given as “depleted”. Besides, the “loss of dendritic spine in neurons treated with oAβ” value in series [4] is “completely rescued”. Also, in series [5], the “oAβ-induced upregulation of RhoA activity” value is “completely blocked”.
